Test results taken from patent publication US20130296384A1, “N-SUBSTITUTED(6 HALOALKYLPYRIDIN 3 YL)ALKYL SULFOXIMINES AS A SEED TREATMENT TO CONTROL COLEOPTERAN INSECTS” (Dow AgroSciences LLC, priority 2012, published 2013).

How the values were obtained:
[1] = tested on: canola (Brassica napus); experiment: Canola seed treatment field test: canola plant yield under natural flea beetle infestation; format: in vivo; settings: 107 days after canola emergence
Procedure: (§1) The effectiveness of sulfoxaflor as a canola (Brassica napus) seed treatment to control feeding damage by cabbage flea beetle (Phyllotreta cruciferae) was evaluated against the commercial standard thiamethoxam (Helix Xtra). Canola seeds were sprayed with a range of insecticides, including Helix Xtra at a use rate of about 0.4 milligrams (mg) thiamethoxam ai/seed, spinosyn A and spinosyn D (spinosad) at a low use rate of about 0.2 mg ai/seed and a high use rate of about 0.6 mg ai/seed, spinetoram at a low use rate of about 0.2 mg ai/seed and a high use rate about 0.6 mg ai/seed, and sulfoxaflor at a low use rate of about 0.2 mg ai/seed and a high use rate about 0.6 mg ai/seed. Each treatment was replicated four (4) times. The canola seeds were planted and then exposed to a natural infestation of the cabbage flea beetles soon after emergence.
Canola plant yield was evaluated at 107 days after the canola seed emerged from the ground described above. […] As depicted in FIG. 4, the low use rate of sulfoxaflor facilitated a canola plant yield similar to that facilitated by the use of Helix Xtra, and the high use rate of sulfoxaflor facilitated improved canola plant yield as compared to the use of Helix Xtra.

[2] = tested on: canola (Brassica napus); experiment: Canola seed treatment field test: canola plant vigor under natural flea beetle infestation; format: in vivo; settings: 13 days after canola emergence
Procedure: as §1
Canola plant vigor was evaluated at thirteen (13) days after the canola seed emerged from the ground described above. […] As depicted in FIG. 3, both the low use rate of sulfoxaflor and the high use rate of sulfoxaflor facilitated improved canola plant vigor as compared to the use of Helix Xtra.

[3] = high use rate about 0.6 mg ai/seed
[4] = low use rate about 0.2 mg ai/seed

CC(c1ccc(C(F)(F)F)nc1)S(C)(=O)=NC#N (stereo not shown) [sulfoxaflor]
canola plant yield [1, 3]: about 4500 kg/ha
canola plant yield [1, 4]: about 4050 kilograms (Kg)/hectare (ha)
canola plant vigor [2, 3]: about 69%
canola plant vigor [2, 4]: about 87%
